{"source": "patent EP0783524B1", "about": "“PEPTIDES AND PHARMACEUTICAL COMPOSITIONS COMPRISING THEM” (YEDA RESEARCH AND DEVELOPMENT CO. LTD., priority 1994, dated 2005)", "key": {"NOD mice": {"test_system": "NOD mice", "details": "results of refs (3) and (4); cited from earlier work"}, "anti-idiotypic T cells": {"test_system": "anti-idiotypic T cells", "experiment": "Immunization followed by spleen T cell proliferation assay (anti-idiotypic response), NOD mice", "type": "in vivo", "details": "NOD female mice, 12 weeks old, 100 µg per mouse subcutaneously in IPA; tested 2 or 5 weeks after treatment; C9VDJ peptide 5 µg/ml (Figure 9)", "excerpt": "The peptides are useful for the production of a medicine for vaccination against IDDM. • Figure 1. Determination by PCR of TCR, Vβ gene usage in the C9 clone. Lanes 1-19: the 19 different Vβ amplification reactions with the Cβ oligonucleotide primer. Lane s.m.: fx/Hae III size marker. The gel was hybridized with an internal Cβ oligonucleotide probe and therefore the size marker is printed. The two positive bands for Vβ2 and Vβ12 indicate the existence of these segments in the C9 clone. • Figure 2. The presence of sequences homologous to the C9 VDJ rearrangement determined by PCR in different T-cell lines using the specific C9 VDJ oligonucleotide primer. The first four lanes show the results of the NOD lines C9 (lane 1), C7 (2), N4 (3), and an anti-ovalbumin line (4). […] T cell responses to hep60 (idiotype) and to the C9 clone (anti-idiotype) were measured in naive female and male NOD mice. […] The proliferative response was measured'by adding 3H-thymidine to the culture for the last 16 h of a 72 h stimulation. The incorporated 3H-thymidine was measured on a β-counter and the stimulation index (SI) was calculated as cpm incorporation in the presence of antigen/cpm incorporation in the absence of antigen. […]"}}}
{"sequence": "VLGGGCALLRCIPALDSLTPANED (SEQ ID NO:5) [p277]", "values": [{"measurement": "prevention or reversal of diabetes by vaccination", "setting": "NOD mice", "result": "could prevent (3) or even reverse diabetes"}, {"measurement": "anti-C9 response (proliferation to C9VDJ peptide) after peptide treatment", "setting": "anti-idiotypic T cells", "result": "induces anti-C9 response"}]}
